Experimental data published in patent US7148194B2, “Method to increase fibronectin” (Kimberly-Clark Worldwide, Inc., priority 2002, dated 2006).
“And” between values parts separate entries of the source, which are not always exact repeats. Equal values may be shown once. “Also recorded” adds a separate entry of the source.

Tests used:
[1] = molecular target: pro-MMP-9 (Homo sapiens, UniProt P14780); experiment: anti-activation (splicing) assay: conversion of pro-MMP-9 by stromilysin, HPLC; format: biochemical; settings: pro-MMP-9 with stromilysin, micromolar 19-mer
Protocol: The assay measured how much proenzyme was converted into mature matrix metalloproteinase. Proenzyme pro-MMP-9 (100 μg) was mixed with 0.5 μg of stromilysin in PBS. The reaction was incubated at 35° C. Aliquots were removed from the reaction over an 80-minute time course. […] The zero (injection) time point was a single peak that eluted from the column in approximately 750 seconds. This peak reduced in size as a function of time, and two new peaks appeared. The first peak eluted at approximately 800 seconds, and represents the mature form of MMP-9. The second peak eluted at approximately 1100 seconds, and corresponds to the N-terminal pro-domain fragment. Peak areas were determined by integrating over the elution profile, and the percent area changes were plotted.
The first peak, eluting at approximately 700 seconds, is pro-MMP-9. As the splicing reaction proceeds, this peak decreases in intensity (as marked with the downwards arrow), and two new peaks appear. The first new peak, eluting at approximately 800 seconds, is mature and active MMP-9. The second new peak, eluting at approximately 1050 seconds, is the prodomain. As the splicing reaction proceeds, the intensity of these two peaks increases (as marked with the upwards arrows). When the reaction is complete, there is no detectable pro-MMP-9 remaining.

[2] = system: EpiDerm skin model; experiment: viability assay (MTT) in EpiDerm skin model; format: cell-based; settings: peptide at 500 μM and 2 mM, relative to PBS control
Protocol: The sample containers were transferred to 6 well plates that contained fresh media. All peptides were dissolved in PBS at a final concentration of 10 mM, and 100 μL each peptide solution was pipetted onto the surface of the Epiderm sample container. Incubation was continued for 12 hours at 37° C., 5% CO2. After the incubation period, the sample containers were washed three times with PBS and the sample containers were transferred to a 24 well plate that contained 300 μL of MTT assay media per well (MTT concentration was 1 mg/mL). The colorimetric assay was allowed to develop for three hours (incubation at 37° C., 5% CO2). Sample containers were then transferred to a 24 well culture plate that contained 2 mL of isopropanol per well. Extraction of the colored precipitate occurred over a period of four hours at room temperature. Absorbance readings were taken at 570 nm and 650 nm for each sample. The percent viability of each sample relative to a PBS control was calculated as: 100×(OD570^sam−OD650^sam)/(OD570^con−OD650^con) (6) Routinely, the peptide sample was assayed in triplicate. Results

[3] = system: normal human dermal fibroblasts (NHDF); experiment: NHDF migration assay, 48-well chemotaxis chamber; format: cell-based
Protocol: Normal, human dermal fibroblasts (NHDF) were obtained from Biowhittaker, (Walkersville, Md.) and propagated in T75 flasks in FBM media (500 mL, Biowhittaker) containing insulin, hFGF-b, GA-1000, and fetal bovine serum (10 mL) for up to 12 passages. For the migration assay, NHDF were washed once with 10 mL of Hank's buffered saline solution (HBSS). Three milliliters of trypsin (0.25%) in EDTA were added to the T75 flask for no more than five minutes to remove NHDF from the flask. NHDF in trypsin solution were added to 7 mL of FBM with no supplements added. NHDF were centrifuged for 5 minutes, and the supernatant was removed. NHDF were resuspended in 10 mL of FBM for counting. NHDF were centrifuged for another 5 minutes, and the supernatant was removed. NHDF were resuspended at 1×10^6 cells per mL in FBM without supplements. It was important to use FBM media only in migration assays because the complete media contains fibroblast growth factor and serum, both of which will trigger migration of fibroblasts.
Peptides were synthesized and purified by the Microchemical Facility at Emory University or by SigmaGenesis. All peptides were analyzed by mass spectrometry after HPLC to assess purity. Approximately 0.5–2.0 milligrams of peptide were used to make fresh stock solutions (5 mg/mL in PBS) for each migration assay. The peptide stock solutions in PBS were used to make more dilute solutions (1 mg/mL, 100 μg/mL, 10 μg/mL, 1 μg/mL, 100 ng/mL, 10 ng/mL) in FBM (without supplements) for the migration assays.
Polyvinylpyrrolidone-free polycarbonate membranes with […] pores (Neuroprobe, Inc., Gaithersburg, Md.) were washed with 90% ethanol for 15 minutes and rinsed four times with deionized water. Membranes were then placed into a glass dish containing an aqueous solution of 5 μg/mL gelatin. The glass dish was placed in to a water bath at about 90° C. for one hour. Membranes were removed from the gelatin solution and were allowed to dry for one hour in the 37° C. incubator.
A 48-well chemotaxis chamber (Neuroprobe, Inc., Gaithersburg, Md.) (see FIG. 20) was used for the migration assays. Twenty-eight μL of each test solution were added to the bottom wells of the chamber in quadruplicate. A gelatin-treated membrane was placed carefully on top of the bottom wells. The gasket and top part of chamber were then placed carefully on top of the membrane. The apparatus was tightened using six thumbscrews. A solution of NHDF containing an estimated cell density (2×10^5 cells per mL) was made by adding 320 μL of the 1×10^6 cells per mL solution to 1.28 mL of FBM (no supplements). Fifty microliters of the 2×10^5 cells per mL NHDF solution were added to the top part of each well in the chamber. The chamber was placed in the incubator at 37° C./5% CO2 for three hours. The chamber was removed, the thumbscrews were removed, and the chamber was turned upside down on a paper towel. […] The membrane was carefully removed. […] The membrane was fixed with methanol and stained using the Diff-Quik Staining Solutions I and II. The nuclei of NHDF are stained purple. The membrane was mounted on a glass slide using cedarwood immersion oil and a cover slip. […] The average number of migrated NHDF in the negative control was subtracted from the experimental (peptide) data and positive control data.

Chain of pro-MMP-9 (P14780 20-707): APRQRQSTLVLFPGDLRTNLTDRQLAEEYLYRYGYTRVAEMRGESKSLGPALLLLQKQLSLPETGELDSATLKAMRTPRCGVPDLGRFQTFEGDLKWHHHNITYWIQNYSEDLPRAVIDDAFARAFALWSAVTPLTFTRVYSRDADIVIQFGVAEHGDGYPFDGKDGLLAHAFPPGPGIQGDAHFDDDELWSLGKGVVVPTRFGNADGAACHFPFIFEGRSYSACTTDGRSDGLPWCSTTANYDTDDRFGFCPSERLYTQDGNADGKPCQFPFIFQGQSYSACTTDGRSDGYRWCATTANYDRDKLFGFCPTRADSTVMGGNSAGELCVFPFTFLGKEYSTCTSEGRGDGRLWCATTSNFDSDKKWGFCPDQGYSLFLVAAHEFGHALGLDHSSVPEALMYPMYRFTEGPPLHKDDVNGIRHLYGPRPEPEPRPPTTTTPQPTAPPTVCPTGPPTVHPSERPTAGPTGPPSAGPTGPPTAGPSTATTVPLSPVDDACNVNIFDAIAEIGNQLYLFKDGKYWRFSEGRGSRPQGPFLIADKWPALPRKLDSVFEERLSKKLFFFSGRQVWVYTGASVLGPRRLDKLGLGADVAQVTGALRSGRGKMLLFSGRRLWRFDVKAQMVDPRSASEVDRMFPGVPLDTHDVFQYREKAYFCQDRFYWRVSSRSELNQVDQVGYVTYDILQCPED

Q: CC(C)[C@H](NC(=O)[C@H](CC(=O)O)NC(=O)[C@@H]1CCCN1C(=O)[C@H](CC(N)=O)NC(=O)CNC(=O)[C@H](CS)NC(=O)[C@H](CCCNC(=N)N)NC(=O)[C@@H]1CCCN1)C(=O)N[C@@H](C)C(=O)N[C@@H](CC(N)=O)C(=O)N[C@@H](Cc1ccc(O)cc1)C(=O)N[C@@H](CC(N)=O)C(=O)N[C@@H](Cc1ccccc1)C(=O)N[C@@H](Cc1ccccc1)C(=O)N1CCC[C@H]1C(=O)N[C@@H](CCCNC(=N)N)C(=O)N[C@@H](CCCCN)C(=O)N1CCC[C@H]1C(=O)N[C@@H](CCCCN)C(=O)O [Peptide 19-mer] was tested. Which “inhibition of conversion of pro-MMP-9 into prodomain and active enzyme (splicing)” value [1] did it give?
A: prevents the activation; also recorded: inhibited in a dose dependent manner

Q: What about the total average viability [2] of the same compound?
A: 97.6%

Q: What about the “NHDF migration, percent of the plasma fibronectin positive control” value (shortened to “NHDF migration, percent”) ([3]; 100 μg/mL peptide) of the same compound?
A: 46±3% and 46%±3%

Q: What about the “NHDF migration, percent” value ([3]; 1000 μg/mL peptide) of the same compound?
A: 55±3% and 55%±3%

Q: And the “NHDF migration, percent” value ([3]; concentrations below 100 μg/mL)?
A: about 20%
